Key:
[1] = test system: lymphoma cell line L5178Y TK-/-; experiment: Test (d): cytotoxicity to lymphoma cell line L5178Y TK-/- in vitro; assay type: cell-based; details: Mus musculus
From the text: (d) An assay which determines the ability of a test compound to be cytotoxic to the lymphoma cell line L5178Y TK-/- in vitro. The lymphoma cell line L5178Y TK-/- is deficient in the enzyme thymidine kinase with phosphorylates thymidine and thus operates to generate a pool of thymidylate when de novo synthesis of thymidylate is prevented by the presence of an effective amount of an inhibitor of thymidylate synthase. The L5178Y TK-/- cell line is thereby more sensitive to the presence of an inhibitor of thymidylate synthase. [L5178Y TK-/- was obtained by mutation of the parent L5178Y cell line which is described by, for example, Fischer et al., Methods in Medical Research, 1964, 10, 247].

[2] = test system: leukaemia cell line L1210; experiment: Test (b): inhibition of growth of leukaemia cell line L1210 in cell culture; assay type: cell-based; details: Mus musculus
From the text: (b) An assay which determines the ability of a test compound to inhibit the growth of the leukaemia cell line L1210 in cell culture. The test is similar to that described in UK Patent Specification No. 2065653B and has been described by Jones et al., J. Med. Chem., 1985, 28, 1468;

thymidylate synthase = molecular target: T1, thymidylate synthase (Mus musculus, UniProt P07607); experiment: Test (a): in vitro inhibition of thymidylate synthase; assay type: biochemical; details: partially purified thymidylate synthase from L1210 mouse leukaemia cells
T1 construct: Thymidylate synthase was obtained in partially purified form from L1210 mouse leukaemia cells; endogenous in cells; host or cells: L1210 mouse leukaemia cells (enzyme partially purified)
From the text: (a) An in vitro assay which determines the ability of a test compound to inhibit the enzyme thymidylate synthase. Thymidylate synthase was obtained in partially purified form from L1210 mouse leukaemia cells and utilised using the procedures described by Jackman et al. (Cancer Res., 1986, 46, 2810 and Sikora et al., Biochem. Pharmacol. 1988, 37 4047);

[3] = test system: human breast cancer cell line MCF-7; experiment: Test (c): inhibition of growth of human breast cancer cell line MCF-7 in cell culture; assay type: cell-based; details: MCF7, MCF-7 cell growth
From the text: (c) An assay which determines the ability of a test compound to inhibit the growth of the human breast cancer cell line MCF-7 in cell culture. The test is similar to that described by Lippman et al. (Cancer Res., 1976, 36, 4595) and […]

[4] = test system: human breast, ovarian and liver cancer; details: clinical, in words; cited from earlier work
[5] = Cancer Treatment Reports, 1986, 70, 1335; in words; cited from earlier work

T1 sequence (P07607 whole entry): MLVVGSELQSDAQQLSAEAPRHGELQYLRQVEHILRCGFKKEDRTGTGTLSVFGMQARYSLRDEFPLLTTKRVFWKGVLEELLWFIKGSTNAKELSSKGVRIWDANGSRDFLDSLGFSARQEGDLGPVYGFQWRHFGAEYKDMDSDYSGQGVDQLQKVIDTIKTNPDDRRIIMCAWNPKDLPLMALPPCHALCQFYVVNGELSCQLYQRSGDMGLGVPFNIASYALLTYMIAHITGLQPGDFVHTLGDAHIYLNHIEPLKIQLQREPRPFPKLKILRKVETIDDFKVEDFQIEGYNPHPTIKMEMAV

Compound	IC50 [1] [µM]	IC50 [2] [µM]	IC50 (thymidylate synthase) [µM]	IC50 [3] [µM]	activity against human breast, ovarian and liver cancer [4]	toxicity in humans [5]
C#CCN(c1ccc(C(=O)N[C@@H](CCC(=O)O)C(=O)O)cc1)C1CCc2cc3nc(C)[nH]c(=O)c3cc21 (mixture of isomers) [Example 1, N-{p-[N-((6RS)-2-methyl-4-oxo-3,4,7,8-tetrahydro-6H-cyclopenta[g]quinazolin-6-yl)-N-(prop-2-ynyl)amino]benzoyl}-L-glutamic acid]	0.72	0.28	0.007	0.02	–	–
C#CCN(Cc1ccc2nc(N)[nH]c(=O)c2c1)c1ccc(C(=O)N[C@@H](CCC(=O)O)C(=O)O)cc1 [CB3717]	–	–	–	–	promising activity against human breast, ovarian and liver cancer	shows symptoms of toxicity in humans, particularly in relation to the liver and kidney

Source: patent US5789417A, “Tricyclic compounds with pharmaceutical activity” (Zeneca Limited, priority 1992, dated 1998)
